# Source: US10428080B2, “TBK/IKK inhibitor compounds and uses thereof” (Merck Patent GmbH, priority 2015, dated 2019)
# Structures can show the parent of a compound that is named as a salt.
# Columns and labels:
# IKKε = target: T1, IKKε (Homo sapiens, UniProt Q14164); experiment: IKKe Biochemical Assay; conditions: read-out: IKKε IC50
# T1 sequence (Q14164 1-716): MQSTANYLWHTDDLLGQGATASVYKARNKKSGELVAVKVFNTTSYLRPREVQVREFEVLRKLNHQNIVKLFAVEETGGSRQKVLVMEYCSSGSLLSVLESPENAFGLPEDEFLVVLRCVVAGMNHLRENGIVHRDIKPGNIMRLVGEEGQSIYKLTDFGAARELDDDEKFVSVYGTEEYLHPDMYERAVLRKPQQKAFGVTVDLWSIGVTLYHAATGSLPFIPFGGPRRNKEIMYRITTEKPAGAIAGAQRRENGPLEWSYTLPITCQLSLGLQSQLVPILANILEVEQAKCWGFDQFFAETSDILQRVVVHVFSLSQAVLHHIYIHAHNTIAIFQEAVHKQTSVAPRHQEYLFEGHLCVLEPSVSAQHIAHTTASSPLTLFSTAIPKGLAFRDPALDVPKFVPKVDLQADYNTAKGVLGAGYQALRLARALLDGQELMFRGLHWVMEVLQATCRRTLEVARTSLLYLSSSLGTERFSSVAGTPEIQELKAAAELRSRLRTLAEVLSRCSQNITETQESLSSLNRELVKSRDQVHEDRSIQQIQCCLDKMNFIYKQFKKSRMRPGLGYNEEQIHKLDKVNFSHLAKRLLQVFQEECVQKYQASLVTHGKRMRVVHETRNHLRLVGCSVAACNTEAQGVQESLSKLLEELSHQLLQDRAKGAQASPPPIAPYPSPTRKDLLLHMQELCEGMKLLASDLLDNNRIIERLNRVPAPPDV
# Procedure, shortened: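 Activity was measured as mobility-shift separation of phosphorylated from unphosphorylated substrate on a LabChip EZ Reader. Compound was titrated from 30 uM final in 10 points, 1:4 steps, with 1% DMSO, and enzyme plus substrate reacted 90 min at 25° C before stop buffer. Control wells held 10 uM staurosporine.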
# TBK1 = target: T2, TBK1 (Homo sapiens, UniProt Q9UHD2); experiment: TBK Biochemical Assay; conditions: read-out: TBK1 IC50
# T2 sequence (Q9UHD2 1-729): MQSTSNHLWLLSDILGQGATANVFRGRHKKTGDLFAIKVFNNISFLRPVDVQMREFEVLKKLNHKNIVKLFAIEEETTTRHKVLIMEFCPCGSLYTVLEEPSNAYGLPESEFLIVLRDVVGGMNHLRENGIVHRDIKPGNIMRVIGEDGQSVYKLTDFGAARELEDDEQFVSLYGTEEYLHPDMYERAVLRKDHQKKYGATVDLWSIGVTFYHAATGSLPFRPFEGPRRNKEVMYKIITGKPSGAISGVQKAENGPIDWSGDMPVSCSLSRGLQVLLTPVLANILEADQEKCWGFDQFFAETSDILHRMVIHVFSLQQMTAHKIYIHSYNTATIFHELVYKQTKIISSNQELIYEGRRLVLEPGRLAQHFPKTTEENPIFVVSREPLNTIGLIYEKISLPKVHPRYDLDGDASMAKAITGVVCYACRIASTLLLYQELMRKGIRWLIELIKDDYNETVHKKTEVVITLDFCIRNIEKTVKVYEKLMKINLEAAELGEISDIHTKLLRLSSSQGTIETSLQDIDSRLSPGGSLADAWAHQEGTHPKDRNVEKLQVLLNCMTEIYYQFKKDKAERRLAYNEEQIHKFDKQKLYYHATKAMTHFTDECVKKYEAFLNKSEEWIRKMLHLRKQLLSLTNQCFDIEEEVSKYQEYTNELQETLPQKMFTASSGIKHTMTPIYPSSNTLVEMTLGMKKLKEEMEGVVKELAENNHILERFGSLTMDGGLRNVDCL
# Procedure, shortened: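 Caliper LabChip mobility-shift readout of substrate and product after 90 min of TBK1 reaction at 25° C and stop-buffer addition. Compounds tested in 1:4 serial dilution over 10 points from 30 uM final at 1% DMSO; staurosporine 10 uM final defines full inhibition.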
SMILES,IC50 (IKKε),IC50 (TBK1)
"CN(C)C(=O)c1ccc(-c2cc3nccc(-c4ccc(N5CC[C@@H](N(C)C)C5)c(C#N)c4)c3o2)cc1 [Compound 172, 4-{7-[3-Cyano-4-((R)-3-dimethylamino-pyrrolidin-1-yl)-phenyl]-furo[3,2-b]pyridin-2-yl}-N,N-dimethyl-benzamide]",100 to 1000 nM,100 to 1000 nM
"COc1cc(C(=O)N2CC3COCC3C2)ncc1-c1cc2nccc(-c3ccc(NC4CCOCC4)c(C#N)c3)c2o1 (stereo not shown) [Compound 421, 5-[2-[6-([hexahydro-1H-furo[3,4-c]pyrrol-5-yl]carbonyl)-4-methoxypyridin-3-yl]furo[3,2-b]pyridin-7-yl]-2-[(oxan-4-yl)amino]benzonitrile]",< 100 nM,< 100 nM
"COc1cc(C(=O)N(C)C)cnc1-c1cc2nccc(-c3ncc(OC4CCOCC4)c(C#N)n3)c2o1 [Compound 396, 6-[7-[4-cyano-5-(oxan-4-yloxy)pyrimidin-2-yl]furo[3,2-b]pyridin-2-yl]-5-methoxy-N,N-dimethylpyridine-3-carboxamide]",100 to 1000 nM,100 to 1000 nM
"CN(C)C(=O)c1ccc(-c2cc3nccc(-c4ccc(Oc5ccccc5F)c(C#N)c4)c3o2)cc1 [Compound 178, 4-{7-[3-Cyano-4-(2-fluoro-phenoxy)-phenyl]-furo[3,2-b]pyridin-2-yl}-N,N-dimethyl-benzamide]",100 to 1000 nM,100 to 1000 nM
COc1cc(C(=O)NC2CC3CCC2CC3)ccc1-c1cc2nccc(-c3ccc(OC4CCOCC4)c(C#N)c3)c2o1 (stereo not shown) [Compound 495],< 100 nM,100 to 1000 nM
"COc1cc(C(=O)N(C)C)cnc1-c1cc2ncc(C)c(-c3ccc(OC4CCOCC4)c(C#N)c3)c2o1 [Compound 320, 6-(7-(3-cyano-4-(tetrahydro-2H-pyran-4-yloxy)phenyl)-6-methylfuro[3,2-b]pyridin-2-yl)-5-methoxy-N,N-dimethylnicotinamide]",1000 to 5000 nM,1000 to 5000 nM

# Further lines, results first:
IC50 (IKKε),IC50 (TBK1),SMILES
> 5000 nM,> 5000 nM,"COc1cc(C(=O)N(C)CCO)cnc1-c1cc2ncc(C3CC3)c(-c3ccc(OC4CCOCC4)c(C#N)n3)c2o1 [Compound 363, 6-[7-[6-cyano-5-(oxan-4-yloxy)pyridin-2-yl]-6-cyclopropylfuro[3,2-b]pyridin-2-yl]-N-(2-hydroxyethyl)-5-methoxy-N-methylpyridine-3-carboxamide hydrochloride]"
< 100 nM,< 100 nM,"COc1cc(C(=O)N2CC(S(C)(=O)=O)C2)ccc1-c1cc2nccc(-c3ccc(OC4CCOCC4)c(C#N)c3)c2o1 [Compound 26, 5-{2-[4-(3-Methanesulfonyl-azetidine-1-carbonyl)-2-methoxy-phenyl]-furo[3,2-b]pyridin-7-yl}-2-(tetrahydro-pyran-4-yloxy)-benzonitrile]"
< 100 nM,< 100 nM,"COc1cc(C(=O)N(C)C)ccc1-c1cc2nccc(-c3ccc(OC4[C@H](C)COC[C@H]4C)c(C#N)c3)c2o1 (single isomer, unassigned) [Compound 231, 4-(7-(3-cyano-4-(3,5-dimethyl-tetrahydro-2H-pyran-4-yloxy)phenyl)furo[3,2-b]pyridin-2-yl)-3-methoxy-N,N-dimethylbenzamide]"
100 to 1000 nM,100 to 1000 nM,"COc1cc(C(=O)N(C)C)cnc1-c1cc2ncc(F)c(-c3ccc(OC4CCOCC4)c(C#N)n3)c2o1 [Compound 351, 6-[7-[6-cyano-5-(oxan-4-yloxy)pyridin-2-yl]-6-fluorofuro[3,2-b]pyridin-2-yl]-5-methoxy-N,N-dimethylpyridine-3-carboxamide hydrochloride]"
< 100 nM,< 100 nM,"COc1cc(C(=O)N(C)C)ccc1-c1cc2nccc(-c3ccc(OC4CCN(C(C)=O)C4)c(C#N)c3)c2o1 (stereo not shown) [Compound 144, 4-{7-[4-(1-Acetyl-pyrrolidin-3-yloxy)-3-cyano-phenyl]-furo[3,2-b]pyridin-2-yl}-3-methoxy-N,N-dimethyl-benzamide]"
